# Reference: patent US11039995B2, “Topical compositions for reducing the effects of aging” (Samson Pharma, LLC, priority 2013, dated 2021)
# Key:
# [1] = cited from earlier work
# skin of albino rabbits = test: Acute dermal irritation/corrosion (OECD 404), single topical 4-hour application; format: in vivo
# Description: A study was conducted based upon the following references: OECD 404, Organization for Economic Co-Operation and Development (OECD), Guidelines for the Testing of Chemicals, “Acute Dermal Irritation/Corrosion”, adopted 24 Apr. 2002. ISO 10993-12, 2012, Biological Evaluation of Medical Devices—Part 12: Sample Preparation and Reference Materials. ISO/IEC 17025, 2005. General Requirements for the Competence of Testing and Calibration Laboratories.
# The skin of three albino rabbits was prepared for testing by clipping the skin of the trunk free of hair at the application sites within 24 hours of the test. The sites of application were not abraded deliberately or accidentally during preparation. Tamibarotene was administered at dose levels of 0.02%, 0.04%, and 0.08% in 60% DMSO. The animals were treated by introducing each dose level (0.5 ml) under gauze patches at individual application sites. The control (0.5 ml of 60% DMSO) was applied to a fourth site.
# As it was suspected that tamibarotene might produce severe irritancy/corrosion, a single animal test was initially employed. Test patches of each dose level and control were applied. After three minutes, the skin sites were examined by gently lifting the bandage to examine the skin without bandage removal. […] If a corrosion effect was observed after three minutes or one hour, the test was to be immediately terminated.
# Because an irritation or corrosive effect was not observed in the initial test after one hour, the response was confirmed using two additional animals dosed with each dose level and control at individual application sites for four hours. At the end of the exposure period, the wrapping was removed from and the skin washed with USP sterile Water for Injection (SWFI) to remove any test substance still remaining. […] Observations were scored according to the Draize Scale for Scoring Skin Reactions.
# [2] = system: promyelocytic leukemia cells; details: relative to all-trans retinoic acid; cited from earlier work
# [3] = clinical trials; cited from earlier work
Structure (SMILES),plasma concentration during daily administration [1],"irritation or corrosive effect after one hour (skin of albino rabbits; initial single animal test, 0.02%, 0.04%, 0.08% in 60% DMSO, after one hour)","serious skin reaction after three minutes (skin of albino rabbits; initial single animal, 0.02%, 0.04%, 0.08% in 60% DMSO, 0.5 ml under gauze patches, examined after three minutes)","primary dermal irritation classification (skin of albino rabbits; single topical 4-hour application, dose levels 0.02%, 0.04%, 0.08% in 60% DMSO)","body weight (skin of albino rabbits; three albino rabbits, during the study)","signs of erythema or edema (Draize Scale) (skin of albino rabbits; three rabbits, 4-hour exposure, 0.02%, 0.04%, 0.08% in 60% DMSO, observed 60 minutes, 24, 48, 72 hours after bandage removal)",potency as an inducer of differentiation compared to ATRA [2],adverse side effects compared to ATRA [3]
"CC1=C(/C=C/C(C)=C/C=C/C(C)=C/C(=O)O)C(C)(C)CCC1 [ATRA, all-trans retinoic acid]",declines considerably,–,–,–,–,–,–,–
"CC1(C)CCC(C)(C)c2cc(NC(=O)c3ccc(C(=O)O)cc3)ccc21 [tamibarotene, Benzoic acid,4-[[(5,6,7,8-tetrahydro-5,5,8,8-tetramethyl-2-naphthalenyl)amino]carbonyl]—]",sustains plasma level,not observed,no serious skin reaction was observed,non-irritant,gained weight,None of the test sites presented any signs of erythema or edema,several times more potent,milder
